Test results: ChEMBL document CHEMBL1201862, “PubChem BioAssay data set” (2004)
Calls of active or inactive are those of the source.

Assays:
Lethal factor = Lethal factor (Bacillus anthracis, UniProt P15917); assay: High-throughput multiplex microsphere dose response for inhibitors of toxin protease, specifically Lethal Factor protease, compounds from Powder Set 01.; format: functional, Bacillus anthracis str. A2012; conditions: read-out: EC50_MICROM
[1] = target: T1, Botulinum neurotoxin type A (Clostridium botulinum (strain Hall / ATCC 3502 / NCTC 13319 / Type A), UniProt P0DPI1); assay: Confirmatory FRET assay using full length substrates for Botulinum neurotoxin light chain A protease, with Powder Set01.; format: functional
T1 sequence (P0DPI1 2-448 limits assumed): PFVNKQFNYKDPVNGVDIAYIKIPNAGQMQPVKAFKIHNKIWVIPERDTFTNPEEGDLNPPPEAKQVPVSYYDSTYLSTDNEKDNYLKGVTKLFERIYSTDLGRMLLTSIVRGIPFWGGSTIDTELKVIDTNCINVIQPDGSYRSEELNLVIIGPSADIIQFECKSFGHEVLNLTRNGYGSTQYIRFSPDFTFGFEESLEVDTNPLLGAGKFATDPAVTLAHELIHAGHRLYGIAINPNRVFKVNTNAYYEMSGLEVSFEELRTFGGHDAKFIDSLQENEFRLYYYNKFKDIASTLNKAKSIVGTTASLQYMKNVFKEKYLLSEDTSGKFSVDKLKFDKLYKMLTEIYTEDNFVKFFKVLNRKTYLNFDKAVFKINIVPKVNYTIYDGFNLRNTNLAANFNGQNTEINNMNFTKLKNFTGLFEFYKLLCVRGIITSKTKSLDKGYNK

[2] = target: T1, Botulinum neurotoxin type A; assay: High-throughput multiplex microsphere dose response for inhibitors of toxin protease, specifically Botulinum neurotoxin light chain A protease, compounds from Powder Set 01.; format: functional, Clostridium botulinum A str. ATCC 3502; conditions: read-out: EC50_MICROM
[3] = target: Botulinum neurotoxin type F (Clostridium botulinum, UniProt P30996); assay: High-throughput multiplex microsphere dose response for inhibitors of toxin protease, specifically Botulinum neurotoxin light chain F protease, compounds from Powder Set 01.; format: functional, Clostridium botulinum Bf; conditions: read-out: EC50_MICROM
Botulinum neurotoxin type F, sequence (P30996 1-436 limits assumed): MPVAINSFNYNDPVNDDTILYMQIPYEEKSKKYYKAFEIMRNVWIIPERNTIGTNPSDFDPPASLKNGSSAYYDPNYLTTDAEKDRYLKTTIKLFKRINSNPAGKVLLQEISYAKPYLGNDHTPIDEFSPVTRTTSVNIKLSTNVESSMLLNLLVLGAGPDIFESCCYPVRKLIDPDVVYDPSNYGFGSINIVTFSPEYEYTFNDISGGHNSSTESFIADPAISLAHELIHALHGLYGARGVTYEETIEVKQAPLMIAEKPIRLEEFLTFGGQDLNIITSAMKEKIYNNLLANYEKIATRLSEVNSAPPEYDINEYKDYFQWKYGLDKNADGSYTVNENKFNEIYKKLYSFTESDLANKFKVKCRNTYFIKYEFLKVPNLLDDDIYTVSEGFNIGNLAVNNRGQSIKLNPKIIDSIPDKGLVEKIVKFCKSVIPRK

[4] = target: T2, Sentrin-specific protease 1 (Homo sapiens, UniProt Q9P0U3); assay: Dose response confirmation of small molecule inhibitors of the catalytic domain of the SUMO protease, SENP1 in a FRET assay.; format: functional; conditions: read-out: IC50_Mean
T2 sequence (Q9P0U3 whole entry): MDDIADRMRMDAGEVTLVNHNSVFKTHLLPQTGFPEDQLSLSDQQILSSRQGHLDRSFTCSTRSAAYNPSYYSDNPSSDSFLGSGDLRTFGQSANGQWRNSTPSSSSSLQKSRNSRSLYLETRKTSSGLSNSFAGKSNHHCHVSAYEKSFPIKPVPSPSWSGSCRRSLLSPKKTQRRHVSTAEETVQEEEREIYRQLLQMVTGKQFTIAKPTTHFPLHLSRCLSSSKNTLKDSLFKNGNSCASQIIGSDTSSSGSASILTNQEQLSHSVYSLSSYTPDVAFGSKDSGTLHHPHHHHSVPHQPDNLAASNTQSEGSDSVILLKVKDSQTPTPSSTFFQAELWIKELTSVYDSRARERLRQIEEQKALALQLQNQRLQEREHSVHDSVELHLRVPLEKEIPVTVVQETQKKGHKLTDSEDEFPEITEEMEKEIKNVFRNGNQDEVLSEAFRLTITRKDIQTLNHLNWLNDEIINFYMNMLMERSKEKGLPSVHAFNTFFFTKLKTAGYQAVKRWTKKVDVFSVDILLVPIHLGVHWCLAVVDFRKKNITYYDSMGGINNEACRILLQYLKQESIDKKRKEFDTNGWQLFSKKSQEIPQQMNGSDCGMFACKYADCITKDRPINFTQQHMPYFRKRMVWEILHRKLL

[5] = target: T3, Probable nicotinate-nucleotide adenylyltransferase (Staphylococcus aureus (strain N315), UniProt P65502); format: functional, Staphylococcus aureus subsp. aureus N315;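 as to IC50 Mean: confirmatory dose-response retesting of NadD inhibitor hits first found in an ultra-high-throughput screen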
T3 sequence (P65502 whole entry): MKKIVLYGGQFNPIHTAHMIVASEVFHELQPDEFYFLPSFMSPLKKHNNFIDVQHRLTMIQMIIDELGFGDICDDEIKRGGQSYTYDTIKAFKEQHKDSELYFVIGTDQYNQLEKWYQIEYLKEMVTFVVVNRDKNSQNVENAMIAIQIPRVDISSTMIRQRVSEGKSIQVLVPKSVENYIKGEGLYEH

[6] = target: T2, Sentrin-specific protease 1; assay: potency of human SENP1 inhibitors, dose response, biochemical, kinetic FRET (AID 651697); format: functional; conditions: read-out: IC50_Mean
[7] = target: T3, Probable nicotinate-nucleotide adenylyltransferase; format: functional, Staphylococcus aureus subsp. aureus N315; conditions: read-out: IC50_Mean
[8] = cytotoxicity in OVCAR8 ovarian cancer cells, dose response, PAX8 project, cell-based, plate reader, dry powder samples (AID 743197); format: functional; conditions: OVCAR-8
[9] = IGROV1 ovarian cancer cell cytotoxicity, dose response, PAX8 inhibitor project, plate reader, dry powder samples (AID 743043); format: functional, cell-based; conditions: IGROV-1
[10] = IOSE-T80 ovarian epithelial cell cytotoxicity, dose response, cytotoxicity control for PAX8 inhibitor project, plate reader, dry powder samples (AID 743045); format: functional, cell-based
Paired box protein Pax-8 = Paired box protein Pax-8 (Homo sapiens, UniProt Q06710); assay: inhibitors of PAX8-driven TPO luciferase reporter, dose response, RMG-I cells, cherry-pick (AID 687027); format: functional, cell-based;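 also: luciferase reporter driven by Pax8 target thyroperoxidase promoter measured by SteadyGlo luminescence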
Paired box protein Pax-8, sequence (Q06710 whole entry): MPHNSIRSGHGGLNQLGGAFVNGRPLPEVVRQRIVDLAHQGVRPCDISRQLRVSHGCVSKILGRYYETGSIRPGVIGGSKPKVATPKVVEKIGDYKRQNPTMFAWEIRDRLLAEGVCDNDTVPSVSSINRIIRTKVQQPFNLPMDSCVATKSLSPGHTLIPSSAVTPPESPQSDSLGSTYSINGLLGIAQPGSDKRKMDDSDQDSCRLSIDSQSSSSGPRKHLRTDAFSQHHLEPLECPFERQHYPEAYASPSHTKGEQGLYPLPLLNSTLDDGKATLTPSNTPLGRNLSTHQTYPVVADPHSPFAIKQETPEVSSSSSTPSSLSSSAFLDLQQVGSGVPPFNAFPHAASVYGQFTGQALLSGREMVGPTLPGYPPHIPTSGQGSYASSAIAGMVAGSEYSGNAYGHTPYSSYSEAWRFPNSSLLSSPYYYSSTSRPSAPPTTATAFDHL

[11] = inhibitors of CMV-promoter luciferase reporter, dose response, counter-screen for Pax8 inhibitor project, cell-based, HEK293, luminescence, dry powder (AID 743020); format: functional
[12] = NIH:OVCAR-3 ovarian cancer cell cytotoxicity, dose response, PAX8 inhibitor project, plate reader, dry powder samples (AID 743044); format: functional, cell-based
Cryptococcus neoformans [13] = assay: Cryptococcus growth inhibition by alamar blue – cell lysis, cherry-picks, replicate tests, mechanism study for C. neoformans antifungal project, dose response (AID 686999); format: functional, organism-based
Cryptococcus neoformans [14] = assay: PubChem AID 686997; format: functional, organism-based
[15] = LMP1-driven NF-kB reporter inhibition, dose response, cell-based, luciferase reporter, luminescence, dry powder, set 2 (AID 624376); format: functional
[16] = inhibitors of TNFa-stimulated NF-kB luciferase reporter, dose response, selectivity assay for EBV LMP1 NF-kB inhibitor project, HEK293 LMP1 reporter cells, dry powder, set 2 (AID 624369); format: functional
[17] = target: Protein disulfide-isomerase (Homo sapiens, UniProt P07237); assay: PDI inhibitors, insulin turbidity readout, confirmation, biochemical, dry powder samples, set 2 (AID 652146)
Protein disulfide-isomerase, sequence (P07237 whole entry): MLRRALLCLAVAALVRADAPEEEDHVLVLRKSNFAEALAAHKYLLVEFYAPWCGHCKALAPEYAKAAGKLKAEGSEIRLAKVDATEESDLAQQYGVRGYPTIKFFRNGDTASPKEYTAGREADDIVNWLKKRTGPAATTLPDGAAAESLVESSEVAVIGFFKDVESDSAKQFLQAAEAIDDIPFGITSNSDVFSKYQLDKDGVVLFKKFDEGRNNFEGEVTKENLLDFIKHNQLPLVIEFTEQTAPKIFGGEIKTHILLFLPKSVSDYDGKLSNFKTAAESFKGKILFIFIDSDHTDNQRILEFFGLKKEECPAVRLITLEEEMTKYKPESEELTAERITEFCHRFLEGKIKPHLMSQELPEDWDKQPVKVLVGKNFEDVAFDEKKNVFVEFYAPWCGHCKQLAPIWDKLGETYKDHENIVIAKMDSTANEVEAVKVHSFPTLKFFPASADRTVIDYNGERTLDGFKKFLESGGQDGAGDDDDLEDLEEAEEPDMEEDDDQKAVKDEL

Protein Wnt-3a = Protein Wnt-3a (Mus musculus, UniProt P27467); assay: SAR analysis of small molecule antagonists of Gli-SUFU in a Wnt3a luminescent reporter assay.; format: functional
Protein Wnt-3a, sequence (P27467 whole entry): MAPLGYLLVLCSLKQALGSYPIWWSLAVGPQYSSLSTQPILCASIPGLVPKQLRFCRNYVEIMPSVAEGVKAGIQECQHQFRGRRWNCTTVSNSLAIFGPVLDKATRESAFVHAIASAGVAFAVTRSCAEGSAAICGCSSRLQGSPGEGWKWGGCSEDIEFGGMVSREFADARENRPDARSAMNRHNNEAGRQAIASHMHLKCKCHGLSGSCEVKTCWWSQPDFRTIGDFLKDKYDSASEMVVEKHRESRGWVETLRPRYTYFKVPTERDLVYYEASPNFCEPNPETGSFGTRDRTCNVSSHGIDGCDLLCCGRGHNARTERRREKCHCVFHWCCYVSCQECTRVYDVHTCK

[18] = T. cruzi growth inhibition in host cells, dose response, cell-based, plate reader, dry powder, set 2 (AID 652275); format: functional

Lethal factor, sequence (P15917 whole entry): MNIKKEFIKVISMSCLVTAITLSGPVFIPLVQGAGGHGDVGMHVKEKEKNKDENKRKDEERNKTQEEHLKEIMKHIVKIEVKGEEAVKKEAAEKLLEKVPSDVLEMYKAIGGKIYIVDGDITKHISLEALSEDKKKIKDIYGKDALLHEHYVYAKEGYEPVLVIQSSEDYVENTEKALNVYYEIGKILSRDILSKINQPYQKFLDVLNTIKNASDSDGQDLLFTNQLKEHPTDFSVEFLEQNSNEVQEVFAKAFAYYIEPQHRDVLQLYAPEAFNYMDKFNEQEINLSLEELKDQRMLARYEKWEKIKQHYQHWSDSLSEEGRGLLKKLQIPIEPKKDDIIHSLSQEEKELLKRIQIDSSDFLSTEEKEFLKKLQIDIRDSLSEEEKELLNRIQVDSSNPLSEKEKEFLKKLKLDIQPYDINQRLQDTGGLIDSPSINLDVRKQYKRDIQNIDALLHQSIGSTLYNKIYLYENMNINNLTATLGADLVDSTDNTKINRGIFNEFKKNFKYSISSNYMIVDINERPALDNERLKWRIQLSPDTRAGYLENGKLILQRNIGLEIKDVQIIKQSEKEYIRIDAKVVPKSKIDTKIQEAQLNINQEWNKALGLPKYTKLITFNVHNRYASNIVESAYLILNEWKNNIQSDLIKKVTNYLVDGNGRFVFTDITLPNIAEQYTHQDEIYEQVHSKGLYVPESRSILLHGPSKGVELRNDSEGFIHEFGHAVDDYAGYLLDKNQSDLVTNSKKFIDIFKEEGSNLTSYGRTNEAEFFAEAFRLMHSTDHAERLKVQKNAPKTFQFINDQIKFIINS

In the case of `O=C(Nc1ccc2nc(-c3cccs3)c(-c3cccs3)nc2c1)N1CCCCC1`, the EC50 (Lethal factor) was 6.7 µM (active), the EC50 [1] was 6.9 µM (active) and the EC50 [2] was 6.1 µM (active). The EC50 [3] was 4.6 µM (active).
In the case of `CCOC(=O)C1=C(C)N=c2sc(=Cc3cc(Cl)c(OCC(=O)O)c(Cl)c3)c(=O)n2C1c1cccc(OC)c1` (stereo unspecified), the IC50 [4] was 12.8 µM (active), the IC50 [5] was 5.18 µM (active) and the IC50 [6] was 19.6 µM (active). The IC50 [7] was 19.2 µM (active).
For `C[C@@H]1CN([C@H](C)CO)C(=O)c2cc(NS(=O)(=O)c3ccccc3)ccc2O[C@@H](C)CCCCO[C@H]1CN(C)Cc1ccc(C(F)(F)F)cc1`, the AC50 [8] was 17.6 µM (active), the AC50 [9] was 35.8 µM (active) and the AC50 [10] was 55.1 µM (active). The AC50 (Paired box protein Pax-8) was 5.82 µM (active), the AC50 [11] was 29.8 µM (active) and the AC50 [12] was 15.7 µM (active).
For `COC(=O)C1=C(C)N(Cc2ccc(Cl)cc2)C(=S)NC1c1ccc(Br)cc1` (stereo unspecified), the AC50 (Cryptococcus neoformans [13]) was 29.1 µM (active) and the AC50 (Cryptococcus neoformans [14]) was 27.3 µM (active).
With `O=C(C[C@@H]1C[C@H]2c3cc(NS(=O)(=O)c4ccc(F)cc4)ccc3O[C@H]2[C@H](CO)O1)NCc1ccc(Oc2ccccc2)cc1` the AbsAC35 [15] was 65.62 µM and the AbsAC35 [16] was 42.88 µM.
For `CCNC(=O)C1(CCOc2ccccc2)CCN(Cc2ccc(O)c(Cl)c2)CC1`, the AC50 [17] was > 30 µM (inactive).
With `N#Cc1cccc(C(=O)Nc2cc(N3CCCCC3)ncn2)c1` the IC50 (Protein Wnt-3a) was > 21.8 µM (inactive).
In the case of `CC(C)N1C[C@H](C)[C@@H](CN(C)Cc2ccc(F)cc2)Oc2c(C(=O)Nc3ccncc3)cccc2C1=O`, the AC50 [18] was 0.313 µM (active).
